Measured values as given in patent US20090004185A1, “AMINO-SUBSTITUTED QUINAZOLINE DERIVATIVES AS INHIBITORS OF BETA-CATENIN/TCF-4 PATHWAY AND CANCER TREATMENT AGENTS” (WYETH, priority 2007, published 2009).

How the values were obtained:
β-catenin/Tcf-4 = assay: cells; assay type: cell-based; conditions: 24 hours of incubation with compound, ratio Firefly/Renilla luciferase
Method in brief: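 SW480-derived lines with integrated reporters (Tcf-4-driven firefly luciferase; SV40 firefly as specificity control; SV40 Renilla for cell number/toxicity), treated 24 hours with titrated compounds, final 0.316% DMSO. Dual-luciferase read-out; firefly/Renilla ratio as % of control, duplicate plates, IC50 (nM) from curve fit.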

SV40-Luc = SV40-Luc control luciferase reporter assay, SV 5A8 cell line (SV40-Luc and SV40-R-Luc), control for non-specific inhibitors; assay type: cell-based, human; conditions: SV 5A8 cells derived from SW480, 24 hours of incubation with compound, ratio Firefly/Renilla luciferase
Method in brief: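 Read-out is the firefly-to-Renilla luminescence ratio, expressed as % of control and averaged over duplicate plates, from which IC50s were fitted. Renilla under SV40 normalises for cell number and toxicity. SW480-derived lines carried integrated Tcf-4- or SV40-driven firefly reporters; compound exposure lasted 24 h.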

[1] = Homo sapiens, SW480, 24 h, Tcf 33.13 cells derived from SW480
[2] = Homo sapiens, Tcf22C11, 24 h, Tcf 22C11 cells derived from SW480
[3] = Tcf 22C11 cells derived from SW480
[4] = Tcf 33.13 cells derived from SW480

Compound	IC50 (β-catenin/Tcf-4; [1])	IC50 (β-catenin/Tcf-4; [2])	IC50 (SV40-Luc; Homo sapiens, SV5A8, 24 h)	IC50 (β-catenin/Tcf-4; [3])	IC50 (β-catenin/Tcf-4; [4])	IC50 (SV40-Luc)
Cc1cc(C)c2nc(N3CCN(C)CC3)nc(NCc3ccc(NC(=O)c4ccc(F)cc4)cc3)c2c1 [Example 49, N-[4-({[6,8-dimethyl-2-(4-methylpiperazin-1-yl)quinazolin-4-yl]amino}methyl)phenyl]-4-fluorobenzamide]	> 2510 nM	> 2510 nM	> 10000 nM	–	–	–
Cc1ccc2nc(N(C)C)nc(NCc3ccc(NC(=O)c4ccc(F)cc4)cc3)c2c1 [Example 40, N-[4-({[2-(dimethylamino)-6-methylquinazolin-4-yl]amino}methyl)phenyl]-4-fluorobenzamide]	–	–	–	1620 nM	2050 nM	> 11600 nM
CNc1nc(NCc2ccc(NC(=O)c3ccc(F)cc3F)cc2)c2cc(C)ccc2n1 [Example 34, 2,4-difluoro-N-[4-({[6-methyl-2-(methylamino)quinazolin-4-yl]amino}methyl)phenyl]benzamide]	3230 nM	4190 nM	> 11500 nM	–	–	–
Cc1cc(C)c2nc(N(C)C)nc(NCc3ccc(NC(=O)c4ccc(F)cc4)cc3)c2c1 [Example 52, N-[4-({[2-(dimethylamino)-6,8-dimethylquinazolin-4-yl]amino}methyl)phenyl]-4-fluorobenzamide]	1310 nM	1650 nM	> 22500 nM	–	–	–
Cc1ccc2c(NCc3ccc(NC(=O)C4CCN(Cc5ncc[nH]5)CC4)cc3)nc(N(C)C)nc2c1 [Example 248, N-[4-({[2-(dimethylamino)-7-methylquinazolin-4-yl]amino}methyl)phenyl]-1-(1H-imidazol-2-ylmethyl)piperidine-4-carboxamide]	> 20100 nM	> 20100 nM	> 20100 nM	–	–	–
Cc1ccc2c(NCc3ccc(NC(=O)c4ccc(F)cc4)cc3)nc(N(C)CCO)nc2c1 [Example 214, 4-fluoro-N-{4-[({2-[(2-hydroxyethyl)(methyl)amino]-7-methylquinazolin-4-yl}amino)methyl]phenyl}benzamide]	379 nM	452 nM	> 1090 nM	–	–	–
C=Cc1ccc2c(N[C@@H](C)c3ccc(NC(=O)c4ccc(Cl)nc4)cc3)nc(N(C)C)nc2c1 [Example 106, 6-chloro-N-[4-((1S)-1-{[2-(dimethylamino)-7-vinylquinazolin-4-yl]amino}ethyl)phenyl]nicotinamide]	393 nM	551 nM	> 9820 nM	–	–	–
Cc1ccc2c(N[C@@H](C)c3ccc(NC(=O)c4ccc(Cl)nc4)cc3)nc(N(C)C)nc2c1 [Example 269, (S)-6-chloro-N-(4-(1-(2-(dimethylamino)-7-methylquinazolin-4-ylamino)ethyl)phenyl)nicotinamide]	319 nM	439 nM	> 11300 nM	–	–	–
Cc1ccc2c(NCc3ccc(NC(=O)C4CCN(Cc5ccccc5)CC4)cc3)nc(N(C)CCCN(C)C)nc2c1 [Example 140, 1-benzyl-N-{4-[({2-[[3-(dimethylamino)propyl](methyl)amino]-7-methylquinazolin-4-yl}amino)methyl]phenyl}-piperidine-4-carboxamide]	1320 nM	1420 nM	> 8620 nM	–	–	–
CNc1nc(NCc2ccc(NC(=O)c3ccc(Cl)nc3)cc2)c2cc(OC)c(OC)cc2n1 [Example 9, 6-chloro-N-[4-({[6,7-dimethoxy-2-(methylamino)quinazolin-4-yl]amino}methyl)phenyl]nicotinamide]	1070 nM	888 nM	1520 nM	–	–	–
Cc1ccc2nc(N3CCN[C@@H](C)C3)nc(NCc3ccc(NC(=O)c4ccc(F)cc4)cc3)c2c1 [Example 51, 4-fluoro-N-{4-[({6-methyl-2-[(3S)-3-methylpiperazin-1-yl]quinazolin-4-yl}amino)methyl]phenyl}benzamide]	987 nM	1070 nM	> 5160 nM	–	–	–
CN(C)c1nc(NCc2ccc(NC(=O)c3ccc(F)cc3)cc2)c2ccc(/C=C/C(C)(C)C)cc2n1 [Example 102, N-{4-[({2-(dimethylamino)-7-[(1E)-3,3-dimethylbut-1-en-1-yl]quinazolin-4-yl}amino)methyl]phenyl}-4-fluorobenzamide]	825 nM	1340 nM	> 9360 nM	–	–	–
CNc1nc(NCc2ccc(NC(=O)c3ccc(Cl)c(Cl)c3)cc2)c2cc(C)ccc2n1 [Example 37, 3,4-dichloro-N-[4-({[6-methyl-2-(methylamino)quinazolin-4-yl]amino}methyl)phenyl]benzamide]	5280 nM	> 10700 nM	> 21400 nM	–	–	–
C/C=C\c1ccc2c(NCc3ccc(NC(=O)c4ccc(F)cc4)cc3)nc(N(C)C)nc2c1 [Example 97, N-{4-[({2-(dimethylamino)-7-[(1Z)-prop-1-en-1-yl]quinazolin-4-yl}amino)methyl]phenyl}-4-fluorobenzamide]	599 nM	499 nM	> 2560 nM	–	–	–
CCN(C)c1nc(NCc2ccc(NC(=O)c3ccc(F)cc3)cc2)c2ccc(C)cc2n1 [Example 210, N-{4-[({2-[ethyl(methyl)amino]-7-methylquinazolin-4-yl}amino)methyl]phenyl}-4-fluorobenzamide]	825 nM	1380 nM	> 5640 nM	–	–	–
CN(C)c1nc(NCc2ccc(NC(=O)c3ccc(F)cc3)cc2)c2cc(CO)ccc2n1 [Example 71, N-[4-({[2-(dimethylamino)-6-(hydroxymethyl)quinazolin-4-yl]amino}methyl)phenyl]-4-fluorobenzamide]	2340 nM	2990 nM	> 11200 nM	–	–	–
CNc1nc(NCc2ccc(NC(=O)C3CCN(Cc4ccccc4)CC3)cc2)c2ccccc2n1 [Example 147, 1-benzyl-N-[4-({[2-(methylamino)quinazolin-4-yl]amino}methyl)phenyl]piperidine-4-carboxamide]	1250 nM	1570 nM	> 5200 nM	–	–	–
Cc1cccc2c(NCc3ccc(NC(=O)C4CCN(Cc5ccccc5)CC4)cc3)nc(N(C)C)nc12 [Example 76, 1-benzyl-N-[4-({[2-(dimethylamino)-8-methylquinazolin-4-yl]amino}methyl)phenyl]piperidine-4-carboxamide]	2150 nM	1560 nM	> 9170 nM	–	–	–
N-[4-({[6-nitro-2-(methylamino)quinazolin-4-yl]amino}methyl)phenyl]nicotinamide [Example 188]	–	–	–	> 23300 nM	> 23300 nM	> 23300 nM
Cc1ccc2c(NCc3ccc(NC(=O)c4ccc(F)cc4)cc3)nc(N3CCN(c4ccccn4)CC3)nc2c1 [Example 200, 4-fluoro-N-[4-({[7-methyl-2-(4-pyridin-2-ylpiperazin-1-yl)quinazolin-4-yl]amino}methyl)phenyl]benzamide]	491 nM	804 nM	> 4560 nM	–	–	–
Cc1ccc2c(NCc3ccc(NC(=O)C4CCN(Cc5ccccc5)CC4)cc3)nc(N(C)CCN(C)C)nc2c1 [Example 144, 1-benzyl-N-{4-[({2-[[2-(dimethylamino)ethyl](methyl)amino]-7-methylquinazolin-4-yl}amino)methyl]phenyl}piperidine-4-carboxamide]	1440 nM	2270 nM	> 8840 nM	–	–	–
Cc1ccc2c(NCc3ccc(NC(=O)c4ccc(F)cc4)cc3)nc(N3CCC[C@H]3CN3CCCC3)nc2c1 [Example 228, 4-fluoro-N-{4-[({7-methyl-2-[(2S)-2-(pyrrolidin-1-ylmethyl)pyrrolidin-1-yl]quinazolin-4-yl}amino)methyl]phenyl}benzamide]	2210 nM	1900 nM	> 4640 nM	–	–	–
Cc1ccc2nc(NCc3ccco3)nc(NCc3ccc(NC(=O)C4CCN(Cc5ccccc5)CC4)cc3)c2c1 [Example 81, 1-benzyl-N-{4-[({2-[(2-furylmethyl)amino]-6-methylquinazolin-4-yl}amino)methyl]phenyl}piperidine-4-carboxamide]	> 8920 nM	> 8920 nM	> 17800 nM	–	–	–
Cc1ccc2c(NCc3ccc(NC(=O)C4CCN(Cc5ccccc5)CC4)cc3)nc(N(C)Cc3ccccc3)nc2c1 [Example 142, 1-benzyl-N-{4-[({2-[benzyl(methyl)amino]-7-methylquinazolin-4-yl}amino)methyl]phenyl}-piperidine-4-carboxamide]	677 nM	573 nM	> 4280 nM	–	–	–
C/C=C/c1ccc2nc(N(C)C)nc(NCc3ccc(C(=O)Nc4ccc(F)cc4)cc3)c2c1 [Example 174, E-4-((2-dimethylamino)-6-(prop-1-enyl)quinazolin-4-ylamino)methyl-N-(4-fluorophenyl)benzamide]	–	–	–	436 nM	359 nM	> 5080 nM
CNc1nc(NCc2ccc(NC(=O)c3ccc(F)cc3)cc2)c2cc(C)cc(C)c2n1 [Example 30, N-[4-({[6,8-dimethyl-2-(methylamino)quinazolin-4-yl]amino}methyl)phenyl]-4-fluorobenzamide]	1870 nM	2100 nM	> 5820 nM	–	–	–
Cc1ccc2c(NCc3ccc(NC(=O)C4CCN(C)CC4)cc3)nc(N(C)C)nc2c1 [Example 243, N-[4-({[2-(dimethylamino)-7-methylquinazolin-4-yl]amino}methyl)phenyl]-1-methylpiperidine-4-carboxamide]	1680 nM	1920 nM	> 23100 nM	–	–	–
